What was measured:
Conditions in all cases: Homo sapiens
ACHN = assay: Tested for the cytotoxicity against the Renal cancer cell line ACHN, growth inhibition by 50% is reported; type: functional
A549 = assay: Tested for the cytotoxicity against the Non-small cell lung cancer cell line A-549, growth inhibition by 50% is reported; type: functional
CAKI-1 = assay: Tested for the cytotoxicity against the Renal cancer cell line CAKI-1, growth inhibition by 50% is reported; type: functional
BT-549 = assay: Tested for the cytotoxicity against the Breast cancer cell line BT-549, growth inhibition by 50% is reported; type: functional
CCRF-CEM = assay: Tested for the cytotoxicity against the Leukemia cell line CCRF-CEM, growth inhibition by 50% is reported; type: functional
HCT-15 = assay: Tested for the cytotoxicity against the colon cancer cell line HCT15, growth inhibition by 50% is reported; type: functional
HOP-92 = assay: Tested for the cytotoxicity against the Non-small cell lung cancer cell line HOP-92, growth inhibition by 50% is reported; type: functional
HL-60 = assay: Tested for the cytotoxicity against the Leukemia cell line HL60, growth inhibition by 50% is reported; type: functional
HT-29 = assay: Tested for the cytotoxicity against the colon cancer cell line HT29, growth inhibition by 50% is reported; type: functional
Hs-578T = assay: Tested for the cytotoxicity against the Breast cancer cell line HS-578T, growth inhibition by 50% is reported; type: functional
KM12 = assay: Tested for the cytotoxicity against the colon cancer cell line KM-12, growth inhibition by 50% is reported; type: functional
IGROV-1 = assay: Tested for the cytotoxicity against the Ovarian cancer cell line IGROV1, growth inhibition by 50% is reported; type: functional
K562 = assay: Tested for the cytotoxicity against the Leukemia cell line K-562, growth inhibition by 50% is reported; type: functional
LOX IMVI = assay: Tested for the cytotoxicity against the Melanoma cell line LOXIMVI, growth inhibition by 50% is reported; type: functional
MOLT-4 = assay: Tested for the cytotoxicity against the Leukemia cell line MOLT-4, growth inhibition by 50% is reported; type: functional
MDA-MB-435 = assay: Tested for the cytotoxicity against the Breast cancer cell line MDAMB435, growth inhibition by 50% is reported; type: functional
NCI-H522 = assay: Tested for the cytotoxicity against the Non-small cell lung cancer cell line NCI-H522 growth inhibition by 50% is reported; type: functional
NCI-H226 = assay: Tested for the cytotoxicity against the Non-small cell lung cancer cell line NCI-H226, growth inhibition by 50% is reported; type: functional
NCI-H23 = assay: Tested for the cytotoxicity against the Non-small cell lung cancer cell line NCI-H23, growth inhibition by 50% is reported
OVCAR-8 = assay: Tested for the cytotoxicity against the Ovarian cancer cell line OVCAR-8, growth inhibition by 50% is reported; type: functional
OVCAR-4 = assay: Tested for the cytotoxicity against the Ovarian cancer cell line OVCAR-4, growth inhibition by 50% is reported; type: functional
RPMI-8226 = assay: Tested for the cytotoxicity against the Leukemia cell line RPMI8226, growth inhibition by 50% is reported; type: functional
SF-268 = assay: Tested for the cytotoxicity against the CNS cancer cell line SF-268, growth inhibition by 50% is reported; type: functional
SF-539 = assay: Tested for the cytotoxicity against the CNS cancer cell line SF-539, growth inhibition by 50% is reported; type: functional
U-251 = assay: Tested for the cytotoxicity against the CNS cancer cell line U251,growth inhibition by 50% is reported; type: functional
SR = assay: Tested for the cytotoxicity against the Leukemia cell line SR, growth inhibition by 50% is reported; type: functional
UACC-62 = assay: Tested for the cytotoxicity against the Melanoma cell line UACC-62, growth inhibition by 50% is reported; type: functional

## NS(=O)(=O)c1ccc(/C=C/c2ccc(F)cc2)cc1
ACHN
  GI50: 2.97 µM
A549
  GI50: 8.93 µM
CAKI-1
  GI50: 36.3 µM
BT-549
  GI50: 0.205 µM
CCRF-CEM
  GI50: 62 µM
HCT-15
  GI50: 9.98 µM
HOP-92
  GI50: 33.2 µM
HL-60
  GI50: 37.3 µM
HT-29
  GI50: 29.4 µM
Hs-578T
  GI50: 23.7 µM
KM12
  GI50: 16.3 µM
IGROV-1
  GI50: 20.9 µM
K562
  GI50: 14.9 µM
LOX IMVI
  GI50: 26.7 µM
MOLT-4
  GI50: 12.9 µM
MDA-MB-435
  GI50: 27 µM
NCI-H522
  GI50: 4.81 µM
NCI-H226
  GI50: 7.97 µM
NCI-H23
  GI50: 45.1 µM
OVCAR-8
  GI50: 15.2 µM
OVCAR-4
  GI50: 34.4 µM
RPMI-8226
  GI50: 42.3 µM
SF-268
  GI50: 20.5 µM
SF-539
  GI50: 29.1 µM
U-251
  GI50: 7.93 µM
SR
  GI50: 10.5 µM

## NS(=O)(=O)c1ccc(/C=C/c2ccc(O)cc2)cc1
ACHN
  GI50: 2.28 µM
A549
  GI50: 13.9 µM
CAKI-1
  GI50: 5.59 µM
CCRF-CEM
  GI50: 4.5 µM
HCT-15
  GI50: 24.6 µM
HOP-92
  GI50: 31.5 µM
HL-60
  GI50: 4.35 µM
HT-29
  GI50: 17.8 µM
Hs-578T
  GI50: 28.9 µM
KM12
  GI50: 11.1 µM
IGROV-1
  GI50: 20.3 µM
K562
  GI50: 24.9 µM
LOX IMVI
  GI50: 19.1 µM
MOLT-4
  GI50: 22.6 µM
MDA-MB-435
  GI50: 20.3 µM
NCI-H522
  GI50: 13.8 µM
NCI-H226
  GI50: 11.1 µM
NCI-H23
  GI50: 16.9 µM
OVCAR-8
  GI50: 4.81 µM
OVCAR-4
  GI50: 36.9 µM
RPMI-8226
  GI50: 7.09 µM
SF-268
  GI50: 31.5 µM
SF-539
  GI50: 7.4 µM
U-251
  GI50: 15 µM
UACC-62
  GI50: 3.4 µM
SR
  GI50: 4.68 µM

## NS(=O)(=O)c1ccc(/C=C/c2cccc(O)c2)cc1
ACHN
  GI50: 25.8 µM
A549
  GI50: 19.8 µM
CAKI-1
  GI50: 50.2 µM
CCRF-CEM
  GI50: 16.1 µM
HCT-15
  GI50: 22.8 µM
HOP-92
  GI50: 17.4 µM
HL-60
  GI50: 41.4 µM
HT-29
  GI50: 43.3 µM
Hs-578T
  GI50: 61 µM
KM12
  GI50: 35.4 µM
IGROV-1
  GI50: 30.2 µM
K562
  GI50: 43.4 µM
LOX IMVI
  GI50: 43 µM
MOLT-4
  GI50: 20 µM
MDA-MB-435
  GI50: 25.8 µM
NCI-H522
  GI50: 12.2 µM
NCI-H226
  GI50: 25.8 µM
NCI-H23
  GI50: 46.1 µM
OVCAR-8
  GI50: 25.2 µM
OVCAR-4
  GI50: 27.8 µM
RPMI-8226
  GI50: 18.9 µM
SF-268
  GI50: 65.6 µM
SF-539
  GI50: 36.7 µM
U-251
  GI50: 21.1 µM
UACC-62
  GI50: 18.6 µM
SR
  GI50: 17.8 µM

## COc1cc(/C=C/c2ccc(S(N)(=O)=O)cc2)cc(OC)c1
ACHN
  GI50: 23.5 µM
A549
  GI50: 20.7 µM
CAKI-1
  GI50: 19 µM
BT-549
  GI50: 10.7 µM
CCRF-CEM
  GI50: 19.9 µM
HCT-15
  GI50: 17.4 µM
HOP-92
  GI50: 15 µM
HL-60
  GI50: 18.6 µM
HT-29
  GI50: 16.2 µM
Hs-578T
  GI50: 20.1 µM
KM12
  GI50: 20.8 µM
IGROV-1
  GI50: 23.1 µM
K562
  GI50: 28.7 µM
LOX IMVI
  GI50: 18.2 µM
MOLT-4
  GI50: 18.6 µM
MDA-MB-435
  GI50: 18.7 µM
NCI-H226
  GI50: 12.3 µM
NCI-H23
  GI50: 22.5 µM
OVCAR-8
  GI50: 37.9 µM
OVCAR-4
  GI50: 21.2 µM
RPMI-8226
  GI50: 14.3 µM
SF-268
  GI50: 28.3 µM
SF-539
  GI50: 18.8 µM
U-251
  GI50: 17.1 µM
UACC-62
  GI50: 15.4 µM
SR
  GI50: 19.7 µM

## COc1cccc(/C=C/c2ccc(S(N)(=O)=O)cc2)c1
ACHN
  GI50: 7.12 µM
A549
  GI50: 11 µM
CAKI-1
  GI50: 14.7 µM
BT-549
  GI50: 6.38 µM
CCRF-CEM
  GI50: 13.6 µM
HCT-15
  GI50: 3.6 µM
HOP-92
  GI50: 3.29 µM
HL-60
  GI50: 10.4 µM
HT-29
  GI50: 0.554 µM
Hs-578T
  GI50: 25.5 µM
KM12
  GI50: 12.2 µM
IGROV-1
  GI50: 2.5 µM
K562
  GI50: 20.6 µM
LOX IMVI
  GI50: 30.7 µM
MOLT-4
  GI50: 26.8 µM
MDA-MB-435
  GI50: 17.4 µM
NCI-H226
  GI50: 2.91 µM
NCI-H23
  GI50: 21 µM
OVCAR-8
  GI50: 31.6 µM
OVCAR-4
  GI50: 25 µM
RPMI-8226
  GI50: 3.81 µM
SF-268
  GI50: 17.1 µM
SF-539
  GI50: 16.8 µM
U-251
  GI50: 5.54 µM
UACC-62
  GI50: 14 µM
SR
  GI50: 5.21 µM

## CN(C)c1ccc(/C=C/c2ccc(S(N)(=O)=O)cc2)cc1
ACHN
  GI50: 13.6 µM
A549
  GI50: 10.1 µM
CAKI-1
  GI50: 50.3 µM
BT-549
  GI50: 2.14 µM
CCRF-CEM
  GI50: 46 µM
HCT-15
  GI50: 17.1 µM
HOP-92
  GI50: 16.6 µM
HL-60
  GI50: > 100 µM
HT-29
  GI50: 30.8 µM
Hs-578T
  GI50: 3.03 µM
KM12
  GI50: 8.28 µM
IGROV-1
  GI50: 13.4 µM
K562
  GI50: > 100 µM
LOX IMVI
  GI50: 18.7 µM
MOLT-4
  GI50: > 100 µM
MDA-MB-435
  GI50: 7.63 µM
NCI-H522
  GI50: 6.88 µM
NCI-H226
  GI50: 12.1 µM
NCI-H23
  GI50: 14.2 µM
OVCAR-8
  GI50: 4.95 µM
OVCAR-4
  GI50: 3.34 µM
RPMI-8226
  GI50: 11.6 µM
SF-268
  GI50: 7.16 µM
SF-539
  GI50: 11.7 µM
U-251
  GI50: 11.2 µM
SR
  GI50: 8.58 µM

## NS(=O)(=O)c1ccc(/C=C/c2ccc(O)c(O)c2)cc1
ACHN
  GI50: 20.4 µM
A549
  GI50: 22.3 µM
CAKI-1
  GI50: 29.1 µM
BT-549
  GI50: 4.13 µM
CCRF-CEM
  GI50: 4.79 µM
HCT-15
  GI50: 13.9 µM
HOP-92
  GI50: 15.8 µM
HL-60
  GI50: 16.3 µM
HT-29
  GI50: 35.4 µM
Hs-578T
  GI50: 25.6 µM
KM12
  GI50: 18.2 µM
IGROV-1
  GI50: 4.49 µM
K562
  GI50: 35.3 µM
LOX IMVI
  GI50: 29.9 µM
MOLT-4
  GI50: 12.8 µM
MDA-MB-435
  GI50: 16.8 µM
NCI-H522
  GI50: 2.25 µM
NCI-H226
  GI50: 14 µM
NCI-H23
  GI50: 25.9 µM
OVCAR-8
  GI50: 16.7 µM
OVCAR-4
  GI50: 11.6 µM
RPMI-8226
  GI50: 9.16 µM
SF-268
  GI50: 18.2 µM
SF-539
  GI50: 14.2 µM
U-251
  GI50: 16.3 µM
UACC-62
  GI50: 23.3 µM
SR
  GI50: 12.7 µM
